Source: patent US20220354844A1, “METHODS OF TREATING METABOLIC DISEASES WITH FUSED BICYCLIC PYRAZOLES” (Belite Bio, Inc, priority 2017, published 2022)
Where “and” joins values, the source holds several entries; their conditions need not be identical. Equal values may be shown once.

How the values were obtained:
[1] = test system: Subjects with NAFLD or NASH; test: Treatment of NAFLD and NASH in humans; assay type: in vivo, human; conditions: 50 or 100 mg/day for 6 months
Procedure: Subjects with NAFLD or NASH are treated with doses of either 50 or 100 mg/day of compound 1 or 2 for 6 months. Subjects are permitted their usual other medications (e.g. antidiabetic medications such as metformin or […]) but not glitazones, PPAR agonists, OCA, or similar medications. The subjects are assessed before the study, and at intervals during the study, such as every 4 weeks during the study and 4 weeks after the last dose of compound 1 or 2, for safety and pharmacodynamic evaluations.
MRIs of the subjects' livers are taken every 4 weeks during the study and 4 weeks after completion of compound 1 or 2 dosing, to determine hepatic fat; and liver biopsies are taken before the study (to establish the diagnosis) and 4 weeks after completion of compound 1 or 2 dosing. At each visit, after a 12-hour fast, blood is drawn and urine collected; and a standard metabolic panel, complete blood count, and standard urinalysis are performed. Blood is analyzed for total cholesterol, HDL-C, LDL-C, VLDL-C, TGs, apoB, and liver transaminases. The subjects also maintain health diaries, which are reviewed at each visit.

[2] = Compound 1 single dose rat PK study; assay type: in vivo, male Sprague Dawley rats; conditions: for Vd: read-out: Vss
Procedure: A pharmacokinetic study of Compound 1 following a single intravenous or oral dose administration to male Sprague Dawley rats was conducted, the results of which are found in Table 3 and FIGS. 9-14.

[3] = Compound 1 single dose non-human primate PK study; assay type: in vivo, Cynomolgus Macaques; conditions: NHP; for Vd: read-out: Vss
Procedure: A pharmacokinetic study of Compound 1 following a single intravenous or oral dose administration to non-human primates (Cynomolgus Macaques) was conducted, the results of which are found in Table 2 and FIGS. 1-8.

[4] = Compound 1 single dose mouse PK study; assay type: in vivo, male CD-1 mice
Procedure: A pharmacokinetic study of Compound 1 following a single intravenous or oral dose administration to male CD-1 mice was conducted, the results of which are found in Table 4 and FIGS. 15-20.

[5] = male, Sprague Dawley, plasma, iv, 2 mg/kg, single iv dose 2 mg/kg, Mean of the 3 rats
[6] = male, Sprague Dawley, plasma, iv, 2 mg/kg, single iv dose 2 mg/kg, individual rats
[7] = male, Sprague Dawley, plasma, po, 5 mg/kg, single po dose 5 mg/kg, Mean of the 3 rats
[8] = male, Sprague Dawley, plasma, po, 5 mg/kg, single po dose 5 mg/kg, individual rats
[9] = single iv dose 2 mg/kg, individual rats, 2 mg/kg
[10] = single po dose 5 mg/kg, individual rats, 5 mg/kg
[11] = single iv dose 1 mg/kg, individual animals, 1 mg/kg
[12] = single po dose 5 mg/kg, individual animals, 5 mg/kg
[13] = cynomolgus monkey, plasma, iv, 1 mg/kg, single iv dose 1 mg/kg, Mean of the 3 animals
[14] = cynomolgus monkey, plasma, iv, 1 mg/kg, single iv dose 1 mg/kg, individual animals
[15] = cynomolgus monkey, plasma, po, 5 mg/kg, single po dose 5 mg/kg, Mean of the 3 animals
[16] = cynomolgus monkey, plasma, po, 5 mg/kg, single po dose 5 mg/kg, individual animals
[17] = male, CD-1, plasma, single iv dose 2 mg/kg
[18] = male, CD-1, plasma, single po dose 5 mg/kg

Compound: CC(=O)N1CCc2c(C(=O)N3CCC(c4ccc(F)c(F)c4C(F)(F)F)CC3)n[nH]c2C1 [Compound 1, 1-(3-(4-(3,4-difluoro-2-(trifluoromethyl)phenyl)piperidine-1-carbonyl)-1,4,5,7-tetrahydro-6H-pyrazolo[3,4-c]pyridin-6-yl)ethan-1-one]
- improvement in their disease, as manifested by MRI and liver biopsy [1]: dose-related improvement
- AUC(0-inf) [2, 5]: 3970 ng·h/mL
- AUC(0-t) [2, 5]: 3950 ng·h/mL
- MRT inf [2, 5]: 3.3 h
- MRT last [2, 5]: 3 h
- clearance [2, 5]: 8.68 mL/min/kg
- Tmax ([2]; male, Sprague Dawley, plasma, iv, 2 mg/kg, single iv dose 2 mg/kg, Mean of the 3 rats, first plasma collection time listed as Tmax): 0.08 h
- Cmax ([2]; male, Sprague Dawley, plasma, iv, 2 mg/kg, single iv dose 2 mg/kg, Mean of the 3 rats, read-out: Cmax): 1870 ng/mL
- Vd [2, 5]: 1.68 L/kg
- half-life ([2]; male, Sprague Dawley, plasma, iv, 2 mg/kg, single iv dose 2 mg/kg, Mean of the 3 rats, read-out: t1/2 (converted)): 8.5 h
- AUC(0-inf) [2, 6]: 3610 ng·h/mL
- AUC(0-t) [2, 6]: 3600 ng·h/mL
- MRT inf [2, 6]: 3 h
- MRT last [2, 6]: 2.8 h
- clearance [2, 6]: 9.23 mL/min/kg
- Tmax ([2]; male, Sprague Dawley, plasma, iv, 2 mg/kg, single iv dose 2 mg/kg, individual rats, first plasma collection time listed as Tmax): 0.08 h
- Cmax ([2]; male, Sprague Dawley, plasma, iv, 2 mg/kg, single iv dose 2 mg/kg, individual rats, read-out: Cmax): 1670 ng/mL
- Vd [2, 6]: 1.69 L/kg
- half-life ([2]; male, Sprague Dawley, plasma, iv, 2 mg/kg, single iv dose 2 mg/kg, individual rats, read-out: t1/2 (converted)): 8.6 h
- AUC(0-inf) [2, 7]: 2680 ng·h/mL
- AUC(0-t) [2, 7]: 2640 ng·h/mL
- MRT inf [2, 7]: 9.9 h
- MRT last [2, 7]: 9 h
- Tmax [2, 7]: 1.42 h
- Cmax ([2]; male, Sprague Dawley, plasma, po, 5 mg/kg, single po dose 5 mg/kg, Mean of the 3 rats, read-out: Cmax): 390 ng/mL
- AUC(0-inf) [2, 8]: 3210 ng·h/mL
- AUC(0-t) [2, 8]: 3170 ng·h/mL
- MRT inf [2, 8]: 8.7 h
- MRT last [2, 8]: 8 h
- Cmax ([2]; male, Sprague Dawley, plasma, po, 5 mg/kg, single po dose 5 mg/kg, individual rats, read-out: Cmax): 456 ng/mL
- half-life ([2]; male, Sprague Dawley, plasma, po, 5 mg/kg, single po dose 5 mg/kg, individual rats, read-out: t1/2 (converted)): 8.2 h
- half-life ([2]; male, Sprague Dawley, plasma, po, 5 mg/kg, t1/2, rat, single po dose 5 mg/kg, Mean of the 3 rats, heading: t1/2): 7.6 h
- AUCLAST [2, 9]: 5020 ng·h/mL and 3244 ng·h/mL
- AUCinf [2, 9]: 5055 ng·h/mL and 3256 ng·h/mL
- Cl [2, 9]: 6.6 mL/min/kg and 10.2 mL/min/kg
- Cmax [2, 9]: 2400 ng/mL and 1536 ng/mL
- MRTinf [2, 9]: 3.7 h and 3.1 h
- MRTlast [2, 9]: 3.2 h and 2.9 h
- t1/2 [2, 9]: 11.0 h and 6.0 h
- F ([2]; single po dose 5 mg/kg, Mean of the 3 rats): 27.0%
- AUCLAST [2, 10]: 2683 ng·h/mL and 2069 ng·h/mL
- AUCinf [2, 10]: 2698 ng·h/mL and 2138 ng·h/mL
- Cmax [2, 10]: 274 ng/mL and 440 ng/mL
- F [2, 10]: 32.3% and 27.2% and 21.5%
- MRTinf [2, 10]: 8.2 h and 12.8 h
- MRTlast [2, 10]: 11.2 h
- t1/2 [2, 10]: 6.2 h and 8.5 h
- AUC inf [3, 11]: 5217 hr.ng/m1 and 3761 hr.ng/m1
- AUCLAST [3, 11]: 5165 ng·h/mL and 3731 ng·h/mL
- Cl [3, 11]: 3.2 mL/min/kg and 4.43 mL/min/kg
- Cmax [3, 11]: 968 ng/mL and 704 ng/mL
- MRT last [3, 11]: 6.8 h and 6.7 h
- MRTinf [3, 11]: 7.3 h and 7.1 h
- Vss [3, 11]: 1.399 L/kg and 1.886 L/kg
- t1/2 [3, 11]: 7.8 h and 7.4 h
- F ([3]; single po dose 5 mg/kg, Mean of the 3 animals): 18.7%
- AUC inf [3, 12]: 3601 hr.ng/m1 and 3918 hr.ng/m1
- AUCLAST [3, 12]: 3525 ng·h/mL and 3852 ng·h/mL
- Cmax [3, 12]: 363 ng/mL and 369 ng/mL
- F [3, 12]: 21.6% and 16.5%
- MRT last [3, 12]: 10.0 h and 10.3 h
- MRTinf [3, 12]: 11.1 h
- Tmax [3, 12]: 2 h
- t1/2 [3, 12]: 8.7 h and 8.1 h
- AUC(0-inf) [3, 13]: 4370 ng·h/mL
- AUC(0-t) [3, 13]: 4340 ng·h/mL
- MRT inf [3, 13]: 6.9 h
- clearance [3, 13]: 3.88 mL/min/kg
- half-life [3, 13]: 7.7 h
- Tmax ([3]; cynomolgus monkey, plasma, iv, 1 mg/kg, single iv dose 1 mg/kg, Mean of the 3 animals, first plasma collection time listed as Tmax, read-out: Tmax): 0.27 h
- Cmax ([3]; cynomolgus monkey, plasma, iv, 1 mg/kg, single iv dose 1 mg/kg, Mean of the 3 animals, read-out: Cmax): 881 ng/mL
- MRT last ([3]; cynomolgus monkey, plasma, iv, 1 mg/kg, single iv dose 1 mg/kg, Mean of the 3 animals, read-out: MRT last): 6.4 h
- Vd [3, 13]: 1.6 L/kg
- AUC(0-inf) [3, 14]: 4140 ng·h/mL
- AUC(0-t) [3, 14]: 4110 ng·h/mL
- MRT inf [3, 14]: 6.3 h
- clearance [3, 14]: 4.02 mL/min/kg
- half-life [3, 14]: 7.8 h
- Cmax ([3]; cynomolgus monkey, plasma, iv, 1 mg/kg, single iv dose 1 mg/kg, individual animals, read-out: Cmax): 970 ng/mL
- MRT last ([3]; cynomolgus monkey, plasma, iv, 1 mg/kg, single iv dose 1 mg/kg, individual animals, read-out: MRT last): 5.9 h
- Vd [3, 14]: 1.52 L/kg
- AUC(0-inf) [3, 15]: 4080 ng·h/mL
- AUC(0-t) [3, 15]: 3990 ng·h/mL
- MRT inf [3, 15]: 11.3 h
- half-life [3, 15]: 8.5 h
- Cmax ([3]; cynomolgus monkey, plasma, po, 5 mg/kg, single po dose 5 mg/kg, Mean of the 3 animals, read-out: Cmax): 406 ng/mL
- MRT last ([3]; cynomolgus monkey, plasma, po, 5 mg/kg, single po dose 5 mg/kg, Mean of the 3 animals, read-out: MRT last): 10.2 h
- Tmax ([3]; cynomolgus monkey, plasma, po, 5 mg/kg, single po dose 5 mg/kg, Mean of the 3 animals, read-out: Tmax): 1.67 h
- AUC(0-inf) [3, 16]: 4720 ng·h/mL
- AUC(0-t) [3, 16]: 4580 ng·h/mL
- MRT inf [3, 16]: 11.7 h
- half-life [3, 16]: 8.8 h
- Cmax ([3]; cynomolgus monkey, plasma, po, 5 mg/kg, single po dose 5 mg/kg, individual animals, read-out: Cmax): 485 ng/mL
- MRT last ([3]; cynomolgus monkey, plasma, po, 5 mg/kg, single po dose 5 mg/kg, individual animals, read-out: MRT last): 10.2 h
- Tmax ([3]; cynomolgus monkey, plasma, po, 5 mg/kg, single po dose 5 mg/kg, individual animals, read-out: Tmax): 1 h
- AUC(0-inf) [4, 17]: 2460 ng·h/mL
- AUC(0-t) [4, 17]: 2400 ng·h/mL
- MRT inf [4, 17]: 2.5 h
- MRT last [4, 17]: 2.2 h
- clearance [4, 17]: 13.5 mL/min/kg
- half-life [4, 17]: 2.1 h
- Cmax ([4]; male, CD-1, plasma, single iv dose 2 mg/kg, maximum observed concentration at first time point): 1460 ng/mL
- Vd ([4]; male, CD-1, plasma, single iv dose 2 mg/kg, read-out: Vss): 2.02 L/kg
- AUC(0-inf) [4, 18]: 1810 ng·h/mL
- AUC(0-t) [4, 18]: 1800 ng·h/mL
- Cmax [4, 18]: 278 ng/mL
- MRT inf [4, 18]: 5 h
- MRT last [4, 18]: 4.9 h
- Tmax [4, 18]: 0.25 h
- half-life [4, 18]: 2.9 h
- Tmax ([4]; male, CD-1, single iv dose 2 mg/kg, first plasma collection time): 0.08 h
- F ([4]; single po dose 5 mg/kg): 29.4%
